Molecular target: recombinant human DPP1 (rhDPP1) (Homo sapiens (Human), UniProt P53634)
Assay: Test A1: Fluorescence assay for recombinant human (RH) DPP1
Type: biochemical
Details: Test A1 (Examples 1-35), rhDPP1 ~50 pM, 100 μM H-Gly-Arg-AMC, pH 5.0, 22° C.
Description: Test A1: Fluorescence Assay for Recombinant Human (RH) DPP1
The activity of DPP1 was determined by measuring the enzymatic release of aminomethyl coumarin (AMC) from the peptide substrate (H-Gly-Arg-AMC), which leads to an increase in fluorescence intensity at λex=350 nm and λem=450 nm. The assay was carried out in black 384 well plates in a final volume of 50 μl at 22° C. The assay conditions contained the following: 25 mM piperazine buffer pH 5.0; 50 mM NaCl, 5 mM DTT; 0.01% (v/v) Triton X-100; 100 μM H-Gly-Arg-AMC and rhDPP1 (˜50 pM). […] Routinely, inhibitors were pre-incubated with rhDPP1 for 30-60 min prior to the addition of the peptide substrate to start the reaction for a further 60 min at 22° C.

Chain of recombinant human DPP1 (rhDPP1) (P53634 231-394): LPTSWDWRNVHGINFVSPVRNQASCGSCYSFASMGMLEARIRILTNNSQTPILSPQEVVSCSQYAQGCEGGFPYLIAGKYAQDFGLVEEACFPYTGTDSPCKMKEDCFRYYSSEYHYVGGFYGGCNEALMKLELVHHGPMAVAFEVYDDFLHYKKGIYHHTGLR
Chain of recombinant human DPP1 (rhDPP1) (P53634 25-134): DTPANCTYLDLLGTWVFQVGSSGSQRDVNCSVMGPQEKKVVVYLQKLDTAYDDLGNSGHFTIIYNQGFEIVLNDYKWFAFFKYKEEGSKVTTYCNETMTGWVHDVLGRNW
Chain of recombinant human DPP1 (rhDPP1) (P53634 395-463): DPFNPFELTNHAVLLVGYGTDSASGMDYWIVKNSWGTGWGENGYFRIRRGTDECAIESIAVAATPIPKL

Row | IC50 (read-out: DPP1 activity, pIC50 (converted)) [nM] | DPP1 activity, pIC50 | Compound
1 | 60.3 | – | N#Cc1ccc(-c2ccc(C[C@@H](C#N)NC(=O)C3CNCCCO3)cc2)cc1 (mixture of isomers) [Example 34, Diastereomeric mixture of (2S)-N-[(1S)-1-cyano-2-(4′-cyanobiphenyl-4-yl)ethyl]-1,4-oxazepane-2-carboxamide and (2R)—N-[(1S)-1-cyano-2-(4′-cyanobiphenyl-4-yl)ethyl]-1,4-oxazepane-2-carboxamide]
2 | – | 8.2 | N#C[C@H](Cc1ccc(-c2ccc3oc(=O)n(CC4CC4)c3c2)cc1)NC(=O)[C@@H]1CNCCCO1 [Example 17, (2S)-N-[(1S)-1-Cyano-2-{4-[3-(cyclopropylmethyl)-2-oxo-2,3-dihydro-1,3-benzoxazol-5-yl]phenyl}ethyl]-1,4-oxazepane-2-carboxamide]
3 | – | 8.5 | COCCn1c(=O)sc2ccc(-c3ccc(C[C@@H](C#N)NC(=O)[C@@H]4CNCCCO4)cc3)cc21 [Example 18, (2S)-N-[(1S)-1-Cyano-2-{4-[3-(2-methoxyethyl)-2-oxo-2,3-dihydro-1,3-benzothiazol-5-yl]phenyl}ethyl]-1,4-oxazepane-2-carboxamide]
4 | – | 7.9 | CN1C(=O)COc2ccc(-c3ccc(C[C@@H](C#N)NC(=O)[C@@H]4CNCCCO4)cc3)cc21 [Example 20, (2S)-N-{(1S)-1-Cyano-2-[4-(4-methyl-3-oxo-3,4-dihydro-2H-1,4-benzoxazin-6-yl)phenyl]ethyl}-1,4-oxazepane-2-carboxamide]
5 | – | 8.09 | COCCn1c(=O)oc2ccc(-c3ccc(C[C@@H](C#N)NC(=O)[C@@H]4CNCCCO4)cc3)cc21 [Example 21, (2S)-N-[(1S)-1-Cyano-2-{4-[3-(2-methoxyethyl)-2-oxo-2,3-dihydro-1,3-benzoxazol-5-yl]phenyl}ethyl]-1,4-oxazepane-2-carboxamide]
6 | – | 7.71 | N#Cc1ccc(-c2ccc(C[C@@H](C#N)NC(=O)[C@@H]3CNCCCO3)cc2)s1 [Example 22, (2S)-N-{(1S)-1-Cyano-2-[4-(5-cyanothiophen-2-yl)phenyl]ethyl}-1,4-oxazepane-2-carboxamide]
7 | – | 7.86 | Cn1c(=O)ccc2ccc(-c3ccc(C[C@@H](C#N)NC(=O)[C@@H]4CNCCCO4)cc3)cc21 [Example 24, (2S)-N-{(1S)-1-Cyano-2-[4-(1-methyl-2-oxo-1,2-dihydroquinolin-7-yl)phenyl]ethyl}-1,4-oxazepane-2-carboxamide]
8 | – | 7.97 | N#C[C@H](Cc1ccc(-c2ccc3oc(=O)n(CC4CCOCC4)c3c2)cc1)NC(=O)[C@@H]1CNCCCO1 [Example 25, (2S)-N-[(1S)-1-Cyano-2-{4-[2-oxo-3-(tetrahydro-2H-pyran-4-ylmethyl)-2,3-dihydro-1,3-benzoxazol-5-yl]phenyl}ethyl]-1,4-oxazepane-2-carboxamide]
9 | – | 7.87 | Cn1c(=O)oc2c(Cl)cc(-c3ccc(C[C@@H](C#N)NC(=O)[C@@H]4CNCCCO4)cc3)cc21 [Example 26, (2S)-N-{(1S)-2-[4-(7-Chloro-3-methyl-2-oxo-2,3-dihydro-1,3-benzoxazol-5-yl)phenyl]-1-cyanoethyl}-1,4-oxazepane-2-carboxamide]
10 | – | 8.18 | N#C[C@H](Cc1ccc(-c2ccc3oc(=O)n(CC(F)F)c3c2)cc1)NC(=O)[C@@H]1CNCCCO1 [Example 27, (2S)-N-[(1S)-1-Cyano-2-{4-[3-(2,2-difluoroethyl)-2-oxo-2,3-dihydro-1,3-benzoxazol-5-yl]phenyl}ethyl]-1,4-oxazepane-2-carboxamide]
11 | – | 8.09 | N#C[C@H](Cc1ccc(-c2ccc3oc(=O)n(CC(F)(F)F)c3c2)cc1)NC(=O)[C@@H]1CNCCCO1 [Example 28, (2S)-N-[(1S)-1-Cyano-2-{4-[2-oxo-3-(2,2,2-trifluoroethyl)-2,3-dihydro-1,3-benzoxazol-5-yl]phenyl}ethyl]-1,4-oxazepane-2-carboxamide]
12 | – | 8.62 | Cn1c(=O)sc2ccc(-c3ccc(C[C@@H](C#N)NC(=O)[C@@H]4CNCCCO4)cc3)cc21 [Example 29, (2S)-N-{(1S)-1-Cyano-2-[4-(3-methyl-2-oxo-2,3-dihydro-1,3-benzothiazol-5-yl)phenyl]ethyl}-1,4-oxazepane-2-carboxamide]

Further lines, the molecule ahead of its results:

Row | Compound | IC50 (read-out: DPP1 activity, pIC50 (converted)) [nM] | DPP1 activity, pIC50
13 | Cc1noc2ccc(-c3ccc(C[C@@H](C#N)NC(=O)[C@@H]4CNCCCO4)cc3)cc12 [Example 5, (2S)-N-{(1S)-1-Cyano-2-[4-(3-methyl-1,2-benzoxazol-5-yl)phenyl]ethyl}-1,4-oxazepane-2-carboxamide] | – | 7.79
14 | N#C[C@H](Cc1ccc(-c2ccc(C(F)(F)F)cc2)cc1)NC(=O)[C@@H]1CNCCCO1 [Example 6, (2S)-N-{(1S)-1-Cyano-2-[4′-(trifluoromethyl)biphenyl-4-yl]ethyl}-1,4-oxazepane-2-carboxamide] | – | 7.44
15 | N#C[C@H](Cc1ccc(-c2ccc(F)c(F)c2)cc1)NC(=O)[C@@H]1CNCCCO1 [Example 7, (2S)-N-[(1S)-1-Cyano-2-(3′,4′-difluorobiphenyl-4-yl)ethyl]-1,4-oxazepane-2-carboxamide] | – | 7.16
16 | N#Cc1ccc(-c2ccc(C[C@@H](C#N)NC(=O)[C@@H]3CNCCCO3)cc2)cn1 [Example 8, (2S)-N-{(1S)-1-Cyano-2-[4-(6-cyanopyridin-3-yl)phenyl]ethyl}-1,4-oxazepane-2-carboxamide] | – | 7.06
17 | CN1C(=O)CSc2ccc(-c3ccc(C[C@@H](C#N)NC(=O)[C@@H]4CNCCCO4)cc3)cc21 [Example 9, (2S)-N-{(1S)-1-Cyano-2-[4-(4-methyl-3-oxo-3,4-dihydro-2H-1,4-benzothiazin-6-yl)phenyl]ethyl}-1,4-oxazepane-2-carboxamide] | – | 7.89
18 | CCn1c(=O)oc2c(C)cc(-c3ccc(C[C@@H](C#N)NC(=O)[C@@H]4CNCCCO4)cc3)cc21 [Example 10, (2S)-N-{(1S)-1-Cyano-2-[4-(3-ethyl-7-methyl-2-oxo-2,3-dihydro-1,3-benzoxazol-5-yl)phenyl]ethyl}-1,4-oxazepane-2-carboxamide] | – | 7.67
19 | CC(C)(O)Cn1c(=O)oc2ccc(-c3ccc(C[C@@H](C#N)NC(=O)[C@@H]4CNCCCO4)cc3)cc21 [Example 11, (2S)-N-[(1S)-1-Cyano-2-{4-[3-(2-hydroxy-2-methylpropyl)-2-oxo-2,3-dihydro-1,3-benzoxazol-5-yl]phenyl}ethyl]-1,4-oxazepane-2-carboxamide] | – | 7.05
20 | N#C[C@H](Cc1ccc(-c2cc(F)c3oc(=O)n(CC(F)F)c3c2)cc1)NC(=O)[C@@H]1CNCCCO1 [Example 12, (2S)-N-[(1S)-1-Cyano-2-{4-[3-(2,2-difluoroethyl)-7-fluoro-2-oxo-2,3-dihydro-1,3-benzoxazol-5-yl]phenyl}ethyl]-1,4-oxazepane-2-carboxamide] | – | 8.0
21 | CN1C(=O)C(F)(F)c2ccc(-c3ccc(C[C@@H](C#N)NC(=O)[C@@H]4CNCCCO4)cc3)cc21 [Example 14, (2S)-N-{(1S)-1-Cyano-2-[4-(3,3-difluoro-1-methyl-2-oxo-2,3-dihydro-1H-indol-6-yl)phenyl]ethyl}-1,4-oxazepane-2-carboxamide] | – | 7.78
22 | Cn1c(=O)oc2c(F)cc(-c3ccc(C[C@@H](C#N)NC(=O)[C@@H]4CNCCCO4)cc3)cc21 [Example 15, (2S)-N-{(1S)-1-Cyano-2-[4-(7-fluoro-3-methyl-2-oxo-2,3-dihydro-1,3-benzoxazol-5-yl)phenyl]ethyl}-1,4-oxazepane-2-carboxamide] | – | 8.29

From patent US10287258B2, “Certain (2S)-N-[(1S)-1-cyano-2-phenylethyl]-1,4-oxazepane-2-carboxamides as dipeptidyl peptidase 1 inhibitors” (AstraZeneca AB, priority 2014, dated 2019)
